# Experimental data taken from patent US20250076320A1, “METHOD AND PROGRAM FOR DETECTING ADMINISTERED DRUG, AND DEVICE THEREFOR” (A&T CORPORATION, priority 2023, published 2025).
# Tested on: prothrombin time (blood coagulation, extrinsic pathway)
# Assay: Clot waveform analysis with dry PT reagent containing magnetic particles on the CG02N blood coagulation analyzer
# Conditions: samples receiving administration of rivaroxaban, PT-INR 2.0 or higher (22 samples); inclination from maximal movement level of magnetic particles to 5% attenuation; 25 μl sample; samples not receiving DOAC: −1219.8
# Description: When measurement is initiated, apparatus CG02N turns electromagnets at the bottom of the reaction cell on and off, and allows magnetic particles to move in the reaction cell. CG02N observes the movement of the magnetic particles as the amount of change in the scattered light, and analyzes the change with the elapse of time to determine clotting time. When the CG02N analyzer is used, the change in the movement signal of the magnetic particles over time is inversely correlated to the change in the viscosity of the dry reagent. As the clotting reaction advances, the viscosity in the reaction cell increases, and the movement of the magnetic particles becomes slower. The clot waveform is analyzed by determining a difference between the waveform value (scattered light) after a given period of time from the point when an electromagnet is turned on and the waveform value (scattered light) after a given period of time from the point when electromagnet is turned off. Differences in the waveform values are plotted with the elapse of time, and a point at which the waveform value is lowered by a given percentage from the maximal value (also referred to as “peak TOP”) is designated as the end point. The period from the peak TOP to the end point is measured to obtain the measured value (seconds). The term “clotting time” used herein refers to the period from the peak TOP to the end point. […]
smiles,measurement,value
O=C(NC[C@H]1CN(c2ccc(N3CCOCC3=O)cc2)C(=O)O1)c1ccc(Cl)s1 [rivaroxaban],"Slope of clot waveform, Mean",−805.9
